Key:
arteriosclerotic rats = test: Effect of vitamin K2 on arteriosclerotic rats (vitamin D2-induced calcification); assay type: in vivo
Procedure: Then vitamin D2, vitamin D2 with vitamin K2 (in a low dose), and vitamin D2 with vitamin K2 (in a high dose) were given respectively to the groups A, B and C.
After feeding for five weeks, the urine of each group was sampled for a period of 20 hours and the urinary calcium, phosphorus and creatinine levels were measured.
After feeding for six weeks, the animals of each group were bled to death and the blood, aorta (from the aortic arch to the thoracic aorta) and kidneys were sampled.
The serum was separated from the blood and the serum calcium and phosphorus levels were measured.
The aorta and kidneys were defatted, dehydrated and incinerated and the calcium and phosphorus contents therein were determined.
The calcium concentrations were determined by atomic absorption spectrophotometry. The inorganic phosphorus concentrations were determined by Goldenberg's method. The creatinine concentrations were determined by the enzymatic method.
(The data of each group were compared with those of the control group according to the t-test method.)

beagles = test: Acute (single administration) toxicity test in beagles; assay type: in vivo; conditions: Beagle F, medium 5% gum arabic
Procedure: (§1) Next, the results of the acute toxicity test of 2-methyl-3-[(2E,6E,10E)-3,7,11,15-tetramethyl-2,6,10,14-hexadecatetraenyl]naphthoquinone (generic name: vitamin K2), which is a typical example of the compound of the present invention, will be given. An acute toxicity test was conducted as follows:
(§2) A single administration toxicity test was effected by orally, subcutaneously and intraperitoneally administering the test compound (medium: 5% gum arabic) to SD rats, ICR mice and beagles aged 7 to 8 weeks (5 females and 5 males in each case).

[1] = as above; assay type: in vivo; conditions: dog, in vivo, Beagle M, medium 5% gum arabic
Procedure: as §1, §2

ICR mice = test: Acute (single administration) toxicity test in mice; assay type: in vivo; conditions: Mouse F, medium 5% gum arabic
Procedure: as §1, §2

[2] = as above; assay type: in vivo, ICR mice; conditions: in vivo, Mouse M, medium 5% gum arabic
Procedure: as §1, §2

SD rats = test: Acute (single administration) toxicity test in rats; assay type: in vivo; conditions: Rat F, medium 5% gum arabic
Procedure: as §1, §2

[3] = as above; assay type: in vivo, SD rats; conditions: in vivo, Rat M, medium 5% gum arabic
Procedure: as §1, §2

[4] = Group A: vitamin D2 2.5 × 10^5 IU/kg/day p.o. alone, 6 weeks, n=8

## C=C1CC[C@H](O)C/C1=C/C=C1\CCC[C@]2(C)[C@@H]([C@H](C)/C=C/[C@H](C)C(C)C)CC[C@@H]12 [vitamin D2]
Arteriosclerotic rats; [4]
  Aorta Ca: 11.6 ± 11.1 mg/dL
  Aorta P: 10.9 ± 7.1 mg/dL
  Kidney Ca: 7.6 ± 7.8 mg/dL
  Kidney P: 7.2 ± 2.0 mg/dL
Arteriosclerotic rats; group A, vitamin D2 2.5 × 10^5 IU/kg/day p.o. alone, 6 weeks
  calcium and phosphorus contents in the aorta: significant increases

## CC(C)=CCC/C(C)=C/CC/C(C)=C/CC/C(C)=C/CC1=C(C)C(=O)c2ccccc2C1=O [vitamin K2, 2-Methyl-3-[(2E,6E,10E)-3,7,11,15-tetramethyl-2,6,10,14-hexadecatetraenyl]naphthoquinone]
beagles; intraperitoneal
  LD50: >3000 mg/kg
beagles; oral
  LD50: >3000 mg/kg
beagles; subcutaneous
  LD50: >3000 mg/kg
[1]; ip, intraperitoneal
  LD50: > 3000 mg/kg
[1]; oral
  LD50: > 3000 mg/kg
[1]; sc, subcutaneous
  LD50: > 3000 mg/kg
Arteriosclerotic rats; po, 10 mg/kg, 1008 h
  Aorta Ca: 5.0 ± 3.8 mg/dL
  Aorta P: 12.6 ± 12.2 mg/dL
  Kidney Ca: 3.4 ± 3.8 mg/dL
  Kidney P: 6.3 ± 2.7 mg/dL
Arteriosclerotic rats; po, 100 mg/kg, 1008 h
  Aorta Ca: 2.6 ± 3.2 mg/dL
  Aorta P: 3.7 ± 4.3 mg/dL
  Kidney Ca: 1.6 ± 1.4 mg/dL
  Kidney P: 4.5 ± 1.4 mg/dL
ICR mice; intraperitoneal
  LD50: >5000 mg/kg
ICR mice; oral
  LD50: >5000 mg/kg
ICR mice; subcutaneous
  LD50: >5000 mg/kg
[2]; ip, intraperitoneal
  LD50: > 5000 mg/kg
[2]; oral
  LD50: > 5000 mg/kg
[2]; sc, subcutaneous
  LD50: > 5000 mg/kg
SD rats; intraperitoneal
  LD50: >5000 mg/kg
SD rats; oral
  LD50: >5000 mg/kg
SD rats; subcutaneous
  LD50: >5000 mg/kg
[3]; ip, intraperitoneal
  LD50: > 5000 mg/kg
[3]; oral
  LD50: > 5000 mg/kg
[3]; sc, subcutaneous
  LD50: > 5000 mg/kg
